Results as given in patent publication US10800772B2 (Gilead Sciences, Inc., priority 2016, dated 2020).

How the values were obtained:
Format in all cases: cell-based, HIV-1
HIV-IIIb IN T174I BT = assay: Antiviral assay in MT4 cells, HIV-IIIb IN T174I BT virus (from viral breakthrough); conditions: Human immunodeficiency virus 1, IIIB, MT4, 120 h, read-out: T174I BT EC50, MT4 cells, HIV-IIIb IN T174I BT (viral breakthrough), 5 days, CellTiter-Glo
How it was run: (§1)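 Compounds were titrated as 3-fold serial dilutions at 10 concentrations, in quadruplicate, against 2000 MT4 cells/well that had been infected for 3 h with HIV-IIIb at 0.004 m.o.i. Viruses were wildtype or integrase T174I mutants from breakthrough selection or dose-escalation passaging; mock-infected cells were run in parallel. After 5 days' culture, EC50 was derived as 50% reduction of CellTiter-Glo luminescence, which reflects HIV-1 replication.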

HIV-IIIb IN T174I DE = assay: Antiviral assay in MT4 cells, HIV-IIIb IN T174I DE virus (from dose escalation passaging); conditions: Human immunodeficiency virus 1, IIIB, MT4, 120 h, read-out: T174I DE EC50, MT4 cells, HIV-IIIb IN T174I DE (dose escalation), 5 days, CellTiter-Glo
How it was run: as §1

HIV-IIIb (wildtype) = assay: Antiviral assay in MT4 cells, HIV-IIIb wildtype; conditions: Human immunodeficiency virus 1, IIIB, MT4, 120 h, read-out: WT EC50
How it was run: as §1

Compound | EC50 (HIV-IIIb IN T174I BT) [nM] | EC50 (HIV-IIIb IN T174I DE) [nM] | EC50 (HIV-IIIb (wildtype)) [nM]
COCCN1CCN(c2nn(C)c3ccc(-c4nc5cc(C)c([C@H](OC(C)(C)C)C(=O)O)c(-c6ccc(Cl)cc6)c5s4)cc23)C1=O [Compound 79, (S)-2-(tert-butoxy)-2-(7-(4-chlorophenyl)-2-(3-(3-(2-methoxyethyl)-2-oxoimidazolidin-1-yl)-1-methyl-1H-indazol-5-yl)-5-methylbenzo[d]thiazol-6-yl)acetic acid] | 2320 | 2180 | 7
Cc1cc2nc(-c3cnc4c(c3)c(C3CCN(C5CN(C(=O)OC(C)(C)C)C5)CC3)nn4C)sc2c(-c2ccc(Cl)cc2)c1[C@H](OC(C)(C)C)C(=O)O [Compound 116, (S)-2-(tert-butoxy)-2-(2-(3-(1-(1-(tert-butoxycarbonyl)azetidin-3-yl)piperidin-4-yl)-1-methyl-1H-pyrazolo[3,4-b]pyridin-5-yl)-7-(4-chlorophenyl)-5-methylbenzo[d]thiazol-6-yl)acetic acid] | 3810 | 5190 | 40
[2H]C([2H])([2H])n1nc(C2CCN(C3COC3)CC2)c2cc(-c3nc4cc(C)c([C@H](OC(C)(C)C)C(=O)O)c(-c5ccc(Cl)cc5)c4s3)ccc21 [Compound 40, (S)-2-(tert-butoxy)-2-(7-(4-chlorophenyl)-5-methyl-2-(1-(methyl-d3)-3-(1-(oxetan-3-yl)piperidin-4-yl)-1H-indazol-5-yl)benzo[d]thiazol-6-yl)acetic acid] | 257 | 518 | 10
Cc1cc2nc(-c3ccc4c(n3)c(C3CCN(C5COC5)CC3)nn4C3CC3)sc2c(-c2ccc(Cl)cc2)c1[C@H](OC(C)(C)C)C(=O)O [Compound 178, (S)-2-(tert-butoxy)-2-(7-(4-chloro-phenyl)-2-(1-cyclo-propyl-3-(1-(oxetan-3-yl)piperidin-4-yl)-1H-pyrazolo[4,3-b]pyridin-5-yl)-5-methylbenzo[d]thiazol-6-yl) acetic acid] | 121 | 317 | 4
CC(=O)N1CC[C@@H](N2CCC(c3nn(C)c4ccc(-c5nc6cc(C)c([C@H](OC(C)(C)C)C(=O)O)c(-c7ccc(Cl)cc7)c6s5)cc34)CC2)C1 [Compound 12, (S)-2-(2-(3-(1-((R)-1-acetylpyrrolidin-3-yl)piperidin-4-yl)-1-methyl-1H-indazol-5-yl)-7-(4-chlorophenyl)-5-methylbenzo[d]thiazol-6-yl)-2-(tert-butoxy)acetic Acid] | 81 | 138 | 10
Cc1cc2nc(-c3ccc4c(c3)c(C3=CCOC3)nn4C)sc2c(-c2ccc(Cl)cc2)c1[C@H](OC(C)(C)C)C(=O)O [Compound 51, (S)-2-(tert-butoxy)-2-(7-(4-chlorophenyl)-2-(3-(2,5-dihydrofuran-3-yl)-1-methyl-1H-indazol-5-yl)-5-methylbenzo[d]thiazol-6-yl)acetic acid] | 2720 | 3590 | 15
COC(=O)N1CC(N2CCC(c3nn(C(F)F)c4ccc(-c5nc6cc(C)c([C@H](OC(C)(C)C)C(=O)O)c(-c7ccc(Cl)cc7)c6s5)cc34)CC2)C1 [Compound 44, (S)-2-(tert-butoxy)-2-(7-(4-chlorophenyl)-2-(1-(difluoromethyl)-3-(1-(1-(methoxycarbonyl)azetidin-3-yl)piperidin-4-yl)-1H-indazol-5-yl)-5-methylbenzo[d]thiazol-6-yl)acetic acid] | 600 | 776 | 30
COC(=O)N1CC(N2CCC(c3nn(C4CC4)c4ccc(-c5nc6cc(C)c([C@H](OC(C)(C)C)C(=O)O)c(-c7ccc(Cl)cc7)c6s5)nc34)CC2)C1 [Compound 180, (S)-2-(tert-butoxy)-2-(7-(4-chloro-phenyl)-2-(1-cyclopropyl-3-(1-(1-(methoxy-carbonyl)azetidin-3-yl)piperidin-4-yl)-1H-pyrazolo [4,3-b]pyridin-5-yl)-5-methylbenzo [d]thiazol-6-yl) acetic acid] | 64 | 212 | 4
Cc1cc2nc(-c3ccc4c(c3)c(N3CC5CCC(C3)O5)nn4C)sc2c(-c2ccc(Cl)cc2)c1[C@H](OC(C)(C)C)C(=O)O [Compound 141, (2S)-2-(2-(3-(8-oxa-3-azabicyclo [3.2.1]octan-3-yl)-1-methyl-1H-indazol-5-yl)-7-(4-chlorophenyl)-5-methylbenzo [d]thiazol-6-yl)-2-(tert-butoxy) acetic acid] | 3560 | 3930 | 24
Cc1cc2nc(-c3ccc4c(c3)c(C3CCN(C)C3)nn4C)sc2c(-c2ccc(Cl)cc2)c1[C@H](OC(C)(C)C)C(=O)O (stereo partly drawn) [Compound 63, (2S)-2-(tert-butoxy)-2-(7-(4-chlorophenyl)-5-methyl-2-(1-methyl-3-(1-methylpyrrolidin-3-yl)-1H-indazol-5-yl)benzo[d]thiazol-6-yl)acetic acid] | 2800 | 13200 | 10
[2H]C([2H])([2H])n1nc(C2CCN(C3COC3)CC2)c2nc(-c3nc4cc(C)c([C@H](OC(C)(C)C)C(=O)O)c(-c5ccc(Cl)cc5)c4s3)ccc21 [Compound 176, (S)-2-(tert-butoxy)-2-(7-(4-chloro-phenyl)-5-methyl-2-(1-(methyl-d3)-3-(1-(oxetan-3-yl)piperidin-4-yl)-1H-pyrazolo[4,3-b]pyridin-5-yl)benzo[d]thiazol-6-yl)acetic acid] | 85 | 214 | 3
Cc1cc2nc(-c3ccc4c(c3)c(N3CC(N(C)C)C3)nn4C)sc2c(-c2ccc(Cl)cc2)c1[C@H](OC(C)(C)C)C(=O)O [Compound 90, (S)-2-(tert-butoxy)-2-(7-(4-chlorophenyl)-2-(3-(3-(dimethylamino)azetidin-1-yl)-1-methyl-1H-indazol-5-yl)-5-methylbenzo[d]thiazol-6-yl)acetic Acid] | 1180 | 1350 | 8
COC(=O)N1CC(N2CCC(c3nn(C4CC4)c4ccc(-c5nc6cc(C)c([C@H](OC(C)(C)C)C(=O)O)c(-c7ccc(Cl)cc7)c6s5)cc34)CC2)C1 [Compound 46, (S)-2-(tert-butoxy)-2-(7-(4-chlorophenyl)-2-(1-cyclopropyl-3-(1-(1-(methoxycarbonyl)azetidin-3-yl)piperidin-4-yl)-1H-indazol-5-yl)-5-methylbenzo[d]thiazol-6-yl)acetic acid] | 352 | 716 | 17
CC(=O)N1CC(N2CCC(c3cn(C)c4ncc(-c5nc6cc(C)c([C@H](OC(C)(C)C)C(=O)O)c(-c7ccc(Cl)cc7)c6s5)cc34)CC2)C1 [Compound 204, (S)-2-(2-(3-(1-(1-acetylazetidin-3-yl)piperidin-4-yl)-1-methyl-1H-pyrrolo[2,3-b]pyridin-5-yl)-7-(4-chlorophenyl)-5-methylbenzo [d]thiazol-6-yl)-2-(tert-butoxy) acetic acid] | 255 | 636 | 15
COC(=O)N1CC(N2CCC(c3nn(C)c4ncc(-c5nc6cc(C)c([C@H](OC(C)(C)C)C(=O)O)c(-c7ccc(Cl)cc7)c6s5)cc34)CC2)C1 [Compound 114, (S)-2-(tert-butoxy)-2-(7-(4-chlorophenyl)-2-(3-(1-(1-(methoxycarbonyl)azetidin-3-yl)piperidin-4-yl)-1-methyl-1H-pyrazolo[3,4-b]pyridin-5-yl)-5-methylbenzo[d]thiazol-6-yl)acetic acid] | 1080 | 2200 | 12
CCC(=O)N1CC(N2CCC(c3nn(C)c4ccc(-c5nc6cc(C)c([C@H](OC(C)(C)C)C(=O)O)c(-c7ccc(Cl)cc7)c6s5)cc34)CC2)C1 [Compound 7, (S)-2-(tert-butoxy)-2-(7-(4-chlorophenyl)-5-methyl-2-(1-methyl-3-(1-(1-propionylazetidin-3-yl)piperidin-4-yl)-1H-indazol-5-yl)benzo[d]thiazol-6-yl)acetic Acid] | 114 | 138 | 14
Cc1cc2nc(-c3ccc4c(c3)c(C3CCN(C5CN(C(=O)C6CC6)C5)CC3)nn4C)sc2c(-c2ccc(Cl)cc2)c1[C@H](OC(C)(C)C)C(=O)O [Compound 152, (S)-2-(tert-butoxy)-2-(7-(4-chloro-phenyl)-2-(3-(1-(1-(cyclopropane-carbonyl)azetidin-3-yl)piperidin-4-yl)-1-methyl-1H-indazol-5-yl)-5-methylbenzo[d]thiazol-6-yl) acetic acid] | 175 | 210 | 23
Cc1cc2nc(-c3ccc4c(c3)c(N3CC[C@H](N(C)C)C3)nn4C)sc2c(-c2ccc(Cl)cc2)c1[C@H](OC(C)(C)C)C(=O)O [Compound 93, (S)-2-(tert-butoxy)-2-(7-(4-chlorophenyl)-2-(3-((S)-3-(dimethylamino)pyrrolidin-1-yl)-1-methyl-1H-indazol-5-yl)-5-methylbenzo[d]thiazol-6-yl)acetic acid] | 1010 | 3450 | 13
COC(=O)N1CC(N2CCC(c3c4nc(-c5nc6cc(C)c([C@H](OC(C)(C)C)C(=O)O)c(-c7ccc(Cl)cc7)c6s5)ccc4nn3C(F)F)CC2)C1 [Compound 190, (S)-2-(tert-butoxy)-2-(7-(4-chloro-phenyl)-2-(2-(difluoromethyl)-3-(1-(1-(methoxy-carbonyl)azetidin-3-yl)piperidin-4-yl)-2H-pyrazolo [4,3-b]pyridin-5-yl)-5-methylbenzo [d]thiazol-6-yl) acetic acid] | 1760 | 2750 | 6
